Data on one molecule can be found in ChEMBL document CHEMBL5365420, “Kinetics, Thermodynamics, and Structural Effects of Quinoline-2-Carboxylates, Zinc-Binding Inhibitors of New Delhi Metallo-β-lactamase-1 Re-sensitizing Multidrug-Resistant Bacteria for Carbapenems” (J Med Chem, 2023).

Experiment [1] concerns Klebsiella pneumoniae. In words: Antibacterial activity against clinical isolate Klebsiella pneumoniae ST23213/19 expressing blaNDM-1 co-expressing blaOXA-48/blaSHV-11/blaCTX-M-15 and blaOXA-1 assessed as meropenem MIC at 72.88 uM measured after 20 hrs by broth microdilution assay (reference value: 24 mg/L). The experiment is classed as functional.
Experiment [2] has as its system Escherichia coli. In words: Antibacterial activity against clinical isolate Escherichia coli K12 J53-ST10 684/18 expressing blaNDM-1 co-expressing blaCMY-2 and blaOXA-10 assessed as meropenem MIC at 36.44 uM measured after 20 hrs by broth microdilution assay (reference value: 12 mg/L). The experiment is classed as functional.
The target of experiment [3] is Metallo-beta-lactamase type 2 (Bacteria) (UniProt C7C422).
Sequence of Metallo-beta-lactamase type 2 (Bacteria) (C7C422 whole entry): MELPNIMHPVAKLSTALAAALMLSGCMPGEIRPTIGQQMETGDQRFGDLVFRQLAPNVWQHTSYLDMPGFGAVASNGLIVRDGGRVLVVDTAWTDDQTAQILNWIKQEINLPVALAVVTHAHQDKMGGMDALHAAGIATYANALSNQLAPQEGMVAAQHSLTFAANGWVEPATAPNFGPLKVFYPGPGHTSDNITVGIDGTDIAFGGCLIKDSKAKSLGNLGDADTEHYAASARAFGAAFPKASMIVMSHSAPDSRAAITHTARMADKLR
In experiment [4] the test system is Klebsiella pneumoniae. In words: Antibacterial activity against clinical isolate Klebsiella pneumoniae 50/20 expressing blaNDM-5 co-expressing blaTEM-1 and blaSHV-1 assessed as meropenem MIC at 72.88 uM measured after 20 hrs by broth microdilution assay (reference value: 24 mg/L). The experiment is classed as functional.
Experiment [5] can be described thus: Inhibition of VIM-2 (unknown origin) incubated for 15 mins by absorbance based microplate reader analysis. More on the design: species or system Bacteria.
Experiment [6] concerns Escherichia coli. In words: Antibacterial activity against clinical isolate Escherichia coli K12 J53-ST10 699/15 expressing blaNDM-1 assessed as meropenem MIC at 36.44 uM measured after 20 hrs by broth microdilution assay (reference value: 12 mg/L). The experiment is classed as functional.
The nature of experiment [7]: Inhibition of GIM1 (unknown origin) incubated for 15 mins by absorbance based microplate reader analysis. More on the design: species or system Bacteria.
In experiment [8] the test system is Escherichia coli. In words: Antibacterial activity against clinical isolate Escherichia coli K12 J53-ST10 618/15 expressing blaNDM-1 assessed as meropenem MIC at 72.88 uM measured after 20 hrs by broth microdilution assay (reference value: 24 mg/L). Type of experiment: functional.
Experiment [9] addresses Carbonic anhydrase 2 (Homo sapiens) (UniProt P00918). In words: Inhibition of human CA2 at 10 uM using pNPA as substrate preincubated for 15 mins followed by substrate by absorbance based analysis relative to control.
In experiment [10] the target is Metallo-beta-lactamase type 2 (Bacteria) (UniProt C7C422). The source holds these as a separate data set.
Description: Binding affinity to C-terminal 6His-tagged full length truncated NDM-1 (unknown origin) expressed in Escherichia coli BL21-DE3 assessed as change in enthalpy in presence of zinc sulfate by isothermal titration calorimetric analysis
Experiment [11] deals with Klebsiella pneumoniae. In words: Antibacterial activity against clinical isolate Klebsiella pneumoniae ST1493/10 expressing blaNDM-1 co-expressing blaCMY-2like/blaTEM-1/blaCTX-M-15/blaSHV-28/blaOXA-1 and blaOXA-9 assessed as meropenem MIC at 36.44 uM measured after 20 hrs by broth microdilution assay (reference value: 12 mg/L). Type of experiment: functional.
For experiment [12], the system named is Escherichia coli. In words: Antibacterial activity against clinical isolate Escherichia coli K12 J53-ST10 699/15 expressing blaNDM-1 assessed as meropenem MIC at 72.88 uM measured after 20 hrs by broth microdilution assay (reference value: 24 mg/L). Type of experiment: functional.
Experiment [13] addresses 72 kDa type IV collagenase (Homo sapiens, UniProt P08253). In words: Inhibition of human recombinant MMP-2 CD at 10 uM using OMNIMMP as substrate incubated for 30 mins by fluorescence based analysis relative to control.

Sequence of 72 kDa type IV collagenase (P08253 110-660 limits assumed): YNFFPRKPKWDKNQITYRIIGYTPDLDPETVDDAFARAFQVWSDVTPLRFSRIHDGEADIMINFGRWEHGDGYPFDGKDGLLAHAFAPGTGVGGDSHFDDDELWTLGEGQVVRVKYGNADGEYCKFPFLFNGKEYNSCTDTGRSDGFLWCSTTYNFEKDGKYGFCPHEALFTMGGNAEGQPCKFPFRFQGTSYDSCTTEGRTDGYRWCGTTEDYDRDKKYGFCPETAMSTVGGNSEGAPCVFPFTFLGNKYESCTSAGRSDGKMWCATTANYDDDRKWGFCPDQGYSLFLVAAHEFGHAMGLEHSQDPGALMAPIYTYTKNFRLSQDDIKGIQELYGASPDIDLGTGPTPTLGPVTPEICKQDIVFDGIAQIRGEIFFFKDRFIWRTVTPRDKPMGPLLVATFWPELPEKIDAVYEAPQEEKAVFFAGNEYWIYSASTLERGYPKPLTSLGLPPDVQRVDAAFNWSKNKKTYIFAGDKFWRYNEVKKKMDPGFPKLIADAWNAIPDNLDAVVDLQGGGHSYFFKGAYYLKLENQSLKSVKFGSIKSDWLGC

With `O=C(O)c1ccc2cccc(NS(=O)(=O)c3ccccn3)c2n1`, the MIC with Klebsiella pneumoniae [1] is 16 µg/mL; with Escherichia coli [2], at most 0.125 µg/mL; in the experiment on Klebsiella pneumoniae [4], at most 0.125 µg/mL; in the experiment on Escherichia coli [6], 0.5 µg/mL; in the experiment on Escherichia coli [8], at most 0.125 µg/mL; in the experiment on Klebsiella pneumoniae [11], 2 µg/mL. Further, the MIC in the experiment on Escherichia coli [12] was at most 0.125 µg/mL. Besides, the ΔTm in [3] amounted to 15 °C. For the same molecule, the half-maximal inhibitory concentration (IC50) turned out to be 0.24 µM in [5] and 0.65 µM in [7]. The results for the inhibition in [9] and in experiment [13] were below 5% and above 90%, respectively. In experiment [10], the deltaH is -26.5 kcal/mol.
